From patent publication US5583115A, “Dialkyltiacumicin compounds” (Abbott Laboratories, priority 1995, dated 1996)
Values after ≈ are worked out from the molar mass of the structure shown.

Experiments:
Propionibacterium acnes = test: MIC agar dilution, anaerobic bacteria; format: cell-based; details: Culture # 1775
Micrococcus luteus = test: MIC agar dilution, aerobic and facultative bacteria
Enterobacter aerogenes = test: as above; details: Culture # 1677
S. pyogenes = test: as above
B. loescheii = test: MIC agar dilution, anaerobic bacteria; format: cell-based; details: Culture # 1767
P. species = test: MIC agar dilution, anaerobic bacteria; format: cell-based; details: Culture # 1776
Fusobacterium nucleatum = test: MIC agar dilution, anaerobic bacteria; format: cell-based; details: Culture # 2478
Klebsiella pneumoniae = test: MIC agar dilution, aerobic and facultative bacteria; details: Culture # 2518
B. thetaiotaomicron = test: MIC agar dilution, anaerobic bacteria; format: cell-based
[1] = system: Acinetobacter calcoaceticus; test: MIC agar dilution, aerobic and facultative bacteria; details: Culture # 1845
B. bivius = test: MIC agar dilution, anaerobic bacteria; format: cell-based; details: Culture # 2483
Mycobacterium smegmatis = test: MIC agar dilution, aerobic and facultative bacteria; details: Culture # 5171
B. disiens = test: MIC agar dilution, anaerobic bacteria; format: cell-based; details: Culture # 1763
Candida albicans = test: MIC agar dilution, aerobic and facultative bacteria; details: Culture # 3622
S. epidermidis = test: as above; details: Culture # 1666
Nocardia asteroides = test: as above; details: Culture # 5173
Staphylococcus aureus = test: as above
E. coli = test: as above; format: cell-based
Veillonella parvula = test: MIC agar dilution, anaerobic bacteria; format: cell-based; details: Culture # 2479
Streptococcus bovis = test: MIC agar dilution, aerobic and facultative bacteria; details: Culture # 1699
[2] = system: Peptostreptococcus asaccharolyticus; test: MIC agar dilution, anaerobic bacteria; format: cell-based; details: Culture # 1777
Enterococcus faecium = test: MIC agar dilution, aerobic and facultative bacteria; details: Culture # 1668
Clostridium difficile = test: In vivo hamster model of pseudomembranous Clostridium difficile induced colitis; details: for % Weight change, Day 22 / % Mortality: days 8-14; for % Mortality: expiring by day 20
Procedure: (Suppression of normal gastrointestinal bacteria by the ciprofloxacin permitted the drug-resistant C. difficile to predominate.) Five additional hamsters were segregated as a noninfected control group.
The infected animals were divided into three groups comprising (a) 10 untreated animals; (b) 15 vancomycin-treated animals (5 each at 20, 10 and 1 mg/kg/day orally on days 8-14); and (c) 10 animals treated with the compound of Example 2 (5 each at 10 and 1 mg/kg/day on days 8-14). The subject animals were monitored for (a) body weight (infected hamsters lose significant body mass), and (b) mortality (percent expiring by day 20).

[3] = system: anaerobic pathogens, in particular Clostridium species; test: In vitro activity against anaerobic pathogens, Wilkins-Chalgren agar; format: cell-based; details: MIC, Table 2
Description: It has now been established that novel antimicrobial agents may be obtained by chemical modification of tiacumicins, which are antibiotics isolated from the fermentation broth and mycelium of Dactylosporangium aurantiacum subsp. hamdenensis subsp. nov. Tiacumicin antibiotics are described in U.S. Pat. No. 4,918,174 (issued Apr. 17, 1990 and incorporated herein by reference), and comprise the compounds tiacumicin A, tiacumicin B, tiacumicin C, tiacumicin D, tiacumicin E and tiacumicin F. The compounds of the present invention, which are derivatives of the above tiacumicins, are found to have in vitro activity against a variety of bacterial pathogens and in particular against Clostridium when evaluated in an assay utilizing Wilkins-Chalgren agar in anaerobic conditions. It is therefore expected that these compounds will be useful in the treatment of bacterial infections in mammals, and in particular in the treatment of certain instances of colitis.

Bacteriodes fragilis = test: MIC agar dilution, anaerobic bacteria; format: cell-based
Fusobacterium species = test: MIC agar dilution, anaerobic bacteria; format: cell-based; details: Culture # 1770
Providencia stuartii = test: MIC agar dilution, aerobic and facultative bacteria; details: Culture # 1831
P. cepacia = test: as above; details: Culture # 1684
Streptococcus agalactiae = test: as above; details: Culture # 1670
B. vulgatus = test: MIC agar dilution, anaerobic bacteria; format: cell-based

Compound: CCc1c(Cl)c(OC)c(Cl)c(OC)c1C(=O)OC1C(C)OC(OCC2=CC=CCC(O)C(C)=CC(CC)C(OC3OC(C)(C)C(OC(=O)C(C)C)C(O)C3O)C(C)=CC(C)=CCC(C(C)O)OC2=O)C(OC)C1O (stereo not shown) [Example 2, 3"', 5"'-Di-O-methyltiacumicin B]
- MIC (Propionibacterium acnes): > 2 µg/mL
- MIC (Micrococcus luteus; Culture # 2493): 0.1 µg/mL (≈ 0.0921 µM)
- MIC (Micrococcus luteus; Culture # 2517): 0.1 µg/mL (≈ 0.0921 µM)
- MIC (Enterobacter aerogenes): > 100 µg/mL
- MIC (S. pyogenes; Culture # 1671): > 100 µg/mL
- MIC (S. pyogenes; const., Culture # 1672): 25 µg/mL (≈ 23 µM)
- MIC (S. pyogenes; inducible, Culture # 2548): 25 µg/mL (≈ 23 µM)
- MIC (B. loescheii): > 2 µg/mL
- MIC (P. species): > 2 µg/mL
- MIC (Fusobacterium nucleatum): > 2 µg/mL
- MIC (Klebsiella pneumoniae): > 100 µg/mL
- MIC (B. thetaiotaomicron; Culture # 1764): > 2 µg/mL
- MIC (B. thetaiotaomicron; Culture # 1765): > 2 µg/mL
- MIC (B. thetaiotaomicron; Culture # 1766): > 2 µg/mL
- MIC [1]: > 100 µg/mL
- MIC (B. bivius): > 2 µg/mL
- MIC (Mycobacterium smegmatis): 1.56 µg/mL (≈ 1.44 µM)
- MIC (B. disiens): > 2 µg/mL
- MIC (Candida albicans): > 100 µg/mL
- MIC (S. epidermidis): 50 µg/mL (≈ 46 µM)
- MIC (Nocardia asteroides): 0.39 µg/mL (≈ 0.359 µM)
- MIC (Staphylococcus aureus; Culture # 1662, brain heart infusion agar, 37° C., 20 hours): 100 µg/mL (≈ 92.1 µM)
- MIC (Staphylococcus aureus; Culture # 1664): 50 µg/mL (≈ 46 µM)
- MIC (Staphylococcus aureus; Culture # 1690): 100 µg/mL (≈ 92.1 µM)
- MIC (Staphylococcus aureus; Culture # 2124): > 100 µg/mL
- MIC (Staphylococcus aureus; Culture # 2130): > 100 µg/mL
- MIC (Staphylococcus aureus; Culture # 2498): > 100 µg/mL
- MIC (Staphylococcus aureus; cipro res., Culture # 3384): 100 µg/mL (≈ 92.1 µM)
- MIC (E. coli; DC-2, Culture # 1674): > 100 µg/mL
- MIC (E. coli; H560, Culture # 1675): > 100 µg/mL
- MIC (E. coli; Juhl, Culture # 1673): > 100 µg/mL
- MIC (E. coli; KNK437, Culture # 1676): > 100 µg/mL
- MIC (E. coli; SS, Culture # 2489): > 100 µg/mL
- MIC (Veillonella parvula): > 2 µg/mL
- MIC (Streptococcus bovis): > 100 µg/mL
- MIC [2]: > 2 µg/mL
- MIC (Enterococcus faecium): > 100 µg/mL
- body mass (Clostridium difficile; 1 mg/kg): maintained body mass closest to that of non-infected controls
- % Weight change, Day 22 (Clostridium difficile; 1 mg/kg/day): 154%
- % Mortality (Clostridium difficile; 1 mg/kg/day): 20%
- % Weight change, Day 22 (Clostridium difficile; 10 mg/kg/day): 140%
- % Mortality (Clostridium difficile; 10 mg/kg/day): 60%
- treatment of antibiotic-associated colitis (Clostridium difficile; Table 3): effectively treat an antibiotic-associated colitis
- survival rate (Clostridium difficile; versus untreated infected controls or vancomycin): higher survival rate than either untreated infected controls or in hamsters treated with vancomycin
- activity against anaerobic pathogens [3]: substantial activity against anaerobic pathogens and in particular against Clostridium species
- MIC (Bacteriodes fragilis; Culture # 1756, Wilkins-Chalgren agar, 37° C., 48 hours): > 2 µg/mL
- MIC (Bacteriodes fragilis; Culture # 1757): > 2 µg/mL
- MIC (Bacteriodes fragilis; Culture # 1758): > 2 µg/mL
- MIC (Bacteriodes fragilis; Culture # 1999): > 2 µg/mL
- MIC (Fusobacterium species): > 2 µg/mL
- MIC (Providencia stuartii): > 100 µg/mL
- MIC (P. cepacia): > 100 µg/mL
- MIC (Streptococcus agalactiae): > 100 µg/mL
- MIC (B. vulgatus; Culture # 1762): > 2 µg/mL
- MIC (B. vulgatus; Culture # 2481): > 2 µg/mL
